# Measured values published in patent US7217735B1, “Methods and compositions for enhancing delivery of therapeutic agents to tissues” (priority 1999, dated 2007).
# Tests used:
# FaDu tumor histocultures = assay: Apoptotic fraction and cell density with or without apoptosis-inducing pretreatment, in vitro; format: cell-based, human; design: Cell density: unit not given here
# Description: Drug treatment was as previously described.
# Two studies were performed.
# FaDu xenograft tumors = assay: Paclitaxel efflux from tumor histocultures; format: in vitro ADME, human
# [1] = tested on: patient and xenograft tumors; assay: Paclitaxel efflux from tumor histocultures, all three tumor types
# Description: (§1) The specimens were washed with culture medium for three times and dissected into about 1 mm^3 fragments under sterile conditions. The culture medium consisted of a 1:1 mixture of MEM/DMEM for patient tumors, MEM for FaDu xenografts, and RPMI1640 for PC3 xenografts, supplemented with 9% heat-inactivated FBS, 2 mM glutamine, 0.1 mM non-essential amino acids (only for MEM/DMEM), 90:g/ml gentamicin and 90:g/ml cefotaxime sodium. Five histoculture fragments were placed on a 1 cm^2 piece of presoaked collagen gel and incubated with 4 ml culture medium in 6-well plates. After 2 to 4 days, tumor histocultures were used to study the kinetics of drug penetration.
# (§2) At predetermined times, 100 μl of medium was taken from each well and the histocultures were removed from the plates. The histocultures were blot-dried on a filter paper and their weights were measured. One hundred 1 of medium or tumor samples were mixed with 0.5 ml of Solvable tissue/gel solubilizer, incubated at 50° C. in an oven overnight, and analyzed for total radioactivity using liquid scintillation counting. […] Drug concentration in tissue was calculated as (drug amount) divided by (tissue weight) and was expressed in molar terms.
# The study design of experiments using patient tumors was dictated by the size of the specimens. […]
# [2] = tested on: FaDu xenograft tumor histocultures; assay: Apoptotic cell fraction in paclitaxel-treated histocultures (Example 1); format: cell-based, human
# Description: The fractions of stromal tissue and tumor cells in each histoculture were measured using image analysis. Briefly, stromal and tumor cells of a 100× magnification field were outlined with the computer mouse. The sizes of each of these regions were determined via image analysis by counting the number of pixels in the region. […] Apoptotic cells were determined based on morphological changes in tumor cells such as chromatin condensation and margination, disappearance of nucleoli, formation of membrane blebs, apoptotic bodies and/or cell shrinkage (Kerr J F R et al. (1994) Cancer 73:2013). […] For each tumor piece, 50 to 100 images were processed, and the fractions of the tumor represented by tumor cells, stromal tissue, and interstitial space were calculated.
# [3] = tested on: FaDu xenograft tumor histocultures; assay: [3H]paclitaxel penetration by autoradiography; format: in vitro ADME, human; settings: 120 nM
# Description: The autoradiographic method was as described previously (Lesser G J et al. (1995) Cancer Chemother Pharmacol 37:173–178). […] Tissue samples were mounted on cryostat chucks with embedding matrix (O.C.T. Compound, Miles Inc., Ellchart, Ind.) and cut into 10 μm thick sections in a cryostat at −20° C. […] The slides containing the tissue sections were placed against tritium-sensitive film (Ultrofilm) in an X-ray cassette and exposed for one to two weeks at room temperature. The films were developed for 3–5 minutes at room temperature (D-19 Developer), placed in a stop bath for 30 seconds, immersed in fixer for 3 minutes and exposed to running room temperature water for 15 minutes. The films were then rinsed in Photo-flo 200 and allowed to air-dry. Separately, the tissue section slides were stained with hematoxylin and eosin.
# The threshold for the autoradiographic image was adjusted to minimize the background signal.
# [4] = tested on: patient head and neck tumors; assay: Paclitaxel efflux from tumor histocultures
# Description: as §1, §2
# (§3) The study design of experiments using patient tumors was dictated by the size of the specimens. On some occasions, specimens from an individual patient were only sufficient to study drug uptake and efflux at one or more but not all drug concentrations. A total of 7 head and neck tumors and 3 ovarian tumors were used. For the FaDu xenograft tumor, specimens from individual animals were sufficiently large that each tumor was used for studying uptake and efflux at all four drug concentrations.
# After replacing the drug-containing medium with drug-free medium, the drug concentration remaining in histocultures at 24 and 72 hours post-treatment were analyzed to determine the time to reach 50% of the pseudo steady state level (T1/2,efflux). The statistical significance of the differences among patient (head and neck and ovarian, n=6) and FaDu (n=3) tumors, at equal initial medium concentrations, were analyzed using a unpaired t-test.
# patient ovarian tumors = assay: Paclitaxel uptake in tumor histocultures
# Description: as §1, §2, §3
# The statistical significance of the differences among patient (head and neck and ovarian, n=6) and FaDu (n=3) tumors, at equal initial medium concentrations, were analyzed by the two-tailed unpaired Student's t-test.
# [5] = 10 nM [3H]paclitaxel, 4 hr, with pretreatment by 1:M nonradiolabeled paclitaxel
# [6] = 10 nM [3H]paclitaxel, 4 hr, without pretreatment
# [7] = 10 nM [3H]paclitaxel, 16 hr, with pretreatment by 1:M nonradiolabeled paclitaxel
# [8] = 10 nM [3H]paclitaxel, 16 hr, without pretreatment
# [9] = 10 nM [3H]paclitaxel, 24 hr, with pretreatment by 1:M nonradiolabeled paclitaxel
# [10] = 10 nM [3H]paclitaxel, 24 hr, without pretreatment
# [11] = 10 nM [3H]paclitaxel, 32 hr, with pretreatment by 1:M nonradiolabeled paclitaxel
# [12] = 10 nM [3H]paclitaxel, 32 hr, without pretreatment
# [13] = 10 nM [3H]paclitaxel, 48 hr, with pretreatment by 1:M nonradiolabeled paclitaxel
# [14] = 10 nM [3H]paclitaxel, 48 hr, without pretreatment
# [15] = 10 nM [3H]paclitaxel, 72 hr, with pretreatment by 1:M nonradiolabeled paclitaxel
# [16] = 10 nM [3H]paclitaxel, 72 hr, without pretreatment
# [17] = 50 nM [3H]paclitaxel, 4 hr, with pretreatment by 1:M nonradiolabeled paclitaxel
# [18] = 50 nM [3H]paclitaxel, 4 hr, without pretreatment
# [19] = 50 nM [3H]paclitaxel, 16 hr, with pretreatment by 1:M nonradiolabeled paclitaxel
# [20] = 50 nM [3H]paclitaxel, 16 hr, without pretreatment
# [21] = 50 nM [3H]paclitaxel, 24 hr, with pretreatment by 1:M nonradiolabeled paclitaxel
# [22] = 50 nM [3H]paclitaxel, 24 hr, without pretreatment
# [23] = 50 nM [3H]paclitaxel, 32 hr, with pretreatment by 1:M nonradiolabeled paclitaxel
# [24] = 50 nM [3H]paclitaxel, 32 hr, without pretreatment
# [25] = 50 nM [3H]paclitaxel, 48 hr, with pretreatment by 1:M nonradiolabeled paclitaxel
# [26] = 50 nM [3H]paclitaxel, 48 hr, without pretreatment
# [27] = 50 nM [3H]paclitaxel, 72 hr, with pretreatment by 1:M nonradiolabeled paclitaxel
# [28] = 50 nM [3H]paclitaxel, 72 hr, without pretreatment
# [29] = 50 nM x 24 hr, 24 hr after initiation of treatment
# [30] = 50 nM x 24 hr, 36 hr after initiation of treatment
# [31] = 600 nM x 1 hr, 23 hr later 50 nM x 12 hr, 24 hr after initiation of treatment
# [32] = 600 nM x 1 hr, 23 hr later 50 nM x 12 hr, 36 hr after initiation of treatment
# [33] = initial Cmedium 120 nM for 24 hr, at 24 hr post-treatment
# [34] = initial Cmedium 120 nM for 24 hr, at 72 hr post-treatment
# [35] = initial Cmedium 1,200 nM for 24 hr, at 24 hr post-treatment
# [36] = initial Cmedium 1,200 nM for 24 hr, at 72 hr post-treatment
smiles,measurement,setting,value
CC(=O)O[C@H]1C(=O)[C@@]2(C)[C@H]([C@H](OC(=O)c3ccccc3)[C@]3(O)C[C@H](OC(=O)[C@H](O)[C@@H](NC(=O)c4ccccc4)c4ccccc4)C(C)=C1C3(C)C)[C@]1(OC(C)=O)CO[C@@H]1C[C@@H]2O [paclitaxel],Apoptotic fraction,FaDu tumor histocultures; [5],23.6 ± 1.3%
same,Cell density,FaDu tumor histocultures; [5],64.2 ± 3.5
same,Apoptotic fraction,FaDu tumor histocultures; [6],3.93 ± 0.87%
same,Cell density,FaDu tumor histocultures; [6],86.3 ± 4.0
same,Apoptotic fraction,FaDu tumor histocultures; [7],24.6 ± 4.8%
same,Cell density,FaDu tumor histocultures; [7],64.3 ± 1.8
same,Apoptotic fraction,FaDu tumor histocultures; [8],4.98 ± 0.84%
same,Cell density,FaDu tumor histocultures; [8],80.2 ± 2.9
same,Apoptotic fraction,FaDu tumor histocultures; [9],26.6 ± 2.4%
same,Cell density,FaDu tumor histocultures; [9],64.0 ± 5.2
same,Apoptotic fraction,FaDu tumor histocultures; [10],7.32 ± 1.80%
same,Cell density,FaDu tumor histocultures; [10],81.6 ± 2.5
same,Apoptotic fraction,FaDu tumor histocultures; [11],30.1 ± 3.4%
same,Cell density,FaDu tumor histocultures; [11],60.1 ± 4.2
same,Apoptotic fraction,FaDu tumor histocultures; [12],6.64 ± 1.07%
same,Cell density,FaDu tumor histocultures; [12],79.9 ± 2.1
same,Apoptotic fraction,FaDu tumor histocultures; [13],34.9 ± 5.2%
same,Cell density,FaDu tumor histocultures; [13],62.3 ± 3.1
same,Apoptotic fraction,FaDu tumor histocultures; [14],9.18 ± 1.31%
same,Cell density,FaDu tumor histocultures; [14],77.8 ± 3.0
same,Apoptotic fraction,FaDu tumor histocultures; [15],31.0 ± 4.4%
same,Cell density,FaDu tumor histocultures; [15],61.0 ± 2.2
same,Apoptotic fraction,FaDu tumor histocultures; [16],11.0 ± 1.7%
same,Cell density,FaDu tumor histocultures; [16],82.6 ± 2.2
same,Apoptotic fraction,FaDu tumor histocultures; [17],26.3 ± 5.4%
same,Cell density,FaDu tumor histocultures; [17],63.1 ± 4.5
same,Apoptotic fraction,FaDu tumor histocultures; [18],2.74 ± 0.12%
same,Cell density,FaDu tumor histocultures; [18],85.8 ± 3.6
same,Apoptotic fraction,FaDu tumor histocultures; [19],36.0 ± 3.9%
same,Cell density,FaDu tumor histocultures; [19],60.8 ± 4.9
same,Apoptotic fraction,FaDu tumor histocultures; [20],7.97 ± 2.03%
same,Cell density,FaDu tumor histocultures; [20],83.9 ± 3.3
same,Apoptotic fraction,FaDu tumor histocultures; [21],36.4 ± 2.0%
same,Cell density,FaDu tumor histocultures; [21],58.3 ± 1.1
same,Apoptotic fraction,FaDu tumor histocultures; [22],17.0 ± 2.8%
same,Cell density,FaDu tumor histocultures; [22],77.0 ± 3.8
same,Apoptotic fraction,FaDu tumor histocultures; [23],37.4 ± 4.5%
same,Cell density,FaDu tumor histocultures; [23],53.2 ± 2.1
same,Apoptotic fraction,FaDu tumor histocultures; [24],19.1 ± 2.5%
same,Cell density,FaDu tumor histocultures; [24],71.2 ± 4.6
same,Apoptotic fraction,FaDu tumor histocultures; [25],39.8 ± 3.1%
same,Cell density,FaDu tumor histocultures; [25],53.6 ± 2.4
same,Apoptotic fraction,FaDu tumor histocultures; [26],28.3 ± 2.9%
same,Cell density,FaDu tumor histocultures; [26],68.8 ± 2.5
same,Apoptotic fraction,FaDu tumor histocultures; [27],37.9 ± 3.4%
same,Cell density,FaDu tumor histocultures; [27],47.8 ± 3.2
same,Apoptotic fraction,FaDu tumor histocultures; [28],27.2 ± 3.0%
same,Cell density,FaDu tumor histocultures; [28],61.1 ± 2.8
same,Apoptotic fraction,FaDu tumor histocultures; [29],15.2%
same,Cell density,FaDu tumor histocultures; [29],71.3 ± 2.9
same,Apoptotic fraction,FaDu tumor histocultures; [30],17.0%
same,Cell density,FaDu tumor histocultures; [30],72.6 ± 3.2
same,Apoptotic fraction,FaDu tumor histocultures; [31],20.3 ± 4.3%
same,Cell density,FaDu tumor histocultures; [31],60.9 ± 1.3
same,Apoptotic fraction,FaDu tumor histocultures; [32],25.4 ± 3.4%
same,Cell density,FaDu tumor histocultures; [32],62.4 ± 4.2
same,apoptosis caused by pretreatment,"FaDu tumor histocultures; 1,000 nM nonradiolabeled paclitaxel for 3 hr, at 24 hr, preliminary study",~30%
same,Cmedium,FaDu xenograft tumors; [33],0.989 ± 0.228 nM
same,Ctumor,FaDu xenograft tumors; [33],3.88 ± :M
same,Cmedium,FaDu xenograft tumors; [34],1.42 ± 0.18 nM
same,Ctumor,FaDu xenograft tumors; [34],3.84 ± 1.04 :M
same,Cmedium,FaDu xenograft tumors; [35],12.2 ± 1.3 nM
same,Ctumor,FaDu xenograft tumors; [35],23.2 ± :M
same,Cmedium,FaDu xenograft tumors; [36],18.9 ± 5.5 nM
same,Ctumor,FaDu xenograft tumors; [36],17.7 ± 3.7 :M
same,time at which drug concentration declined to pseudo steady state level,[1],48 h
same,fraction of apoptotic cells,"[2]; 12 nM, remained relatively constant",≥ 7%
same,fraction of apoptotic cells,"[2]; 120 nM, at 24 hours",~30%
same,fraction of apoptotic cells,"[2]; 120 nM, at 72 hours",~50%
same,cell layers penetrated,[3]; during the first 24 hours,15 cell layers
same,cell layers penetrated,[3]; during the second 24 hours,> 80 cell layers
same,"T1/2,efflux",[4]; initial Cmedium 120 nM for 24 hr,7.45 ± 3.02 h
same,% remaining in tumor,[4]; [33],54.8 ± 3.1%
same,Cmedium,[4]; [33],1.13 ± 0.17 nM
same,Ctumor,[4]; [33],1.70 ± :M
same,% remaining in tumor,[4]; [34],43.3 ± 16.3%
same,Cmedium,[4]; [34],1.32 ± 0.14 nM
same,Ctumor,[4]; [34],1.19 ± 0.50 :M
same,"T1/2,efflux","[4]; initial Cmedium 1,200 nM for 24 hr",3.33 ± 2.62 h
same,% remaining in tumor,[4]; [35],18.7 ± 6.2%
same,Cmedium,[4]; [35],7.69 ± 2.55 nM
same,Ctumor,[4]; [35],4.38 ± :M
same,% remaining in tumor,[4]; [36],16.0 ± 5.3%
same,Cmedium,[4]; [36],10.9 ± 1.1 nM
same,Ctumor,[4]; [36],4.17 ± 2.77 :M
same,Mass balance,patient ovarian tumors; initial Cmedium 12 nM,89.3 ± 5.4%
same,Steady state Cmedium,patient ovarian tumors; initial Cmedium 12 nM,10.6 ± 0.7 nM
same,Steady state Ctumor,patient ovarian tumors; initial Cmedium 12 nM,1.32 ± 0.31 :M
same,Mass balance,patient ovarian tumors; initial Cmedium 120 nM,84.5 ± 7.3%
same,Steady state Cmedium,patient ovarian tumors; initial Cmedium 120 nM,86.4 ± 2.3 nM
same,Steady state Ctumor,patient ovarian tumors; initial Cmedium 120 nM,2.86 ± 1.28 :M
same,Mass balance,"patient ovarian tumors; initial Cmedium 1,200 nM",85.2 ± 2.5%
same,Steady state Cmedium,"patient ovarian tumors; initial Cmedium 1,200 nM",870 ± 2.6 nM
same,Steady state Ctumor,"patient ovarian tumors; initial Cmedium 1,200 nM",30.1 ± 11.7 :M
same,Mass balance,"patient ovarian tumors; initial Cmedium 12,000 nM",93.3 ± 4.5%
same,Steady state Cmedium,"patient ovarian tumors; initial Cmedium 12,000 nM","10,500 ± 920 nM"
same,Steady state Ctumor,"patient ovarian tumors; initial Cmedium 12,000 nM",211 ± 80 :M
